The TGI is the concentration giving total growth inhibition. High values mean lower sensitivity of the cells, low ones greater sensitivity of the cells. As a reminder, the GI50 is the concentration that inhibits growth by half.

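Interpolation was linear, between the two tested concentrations surrounding the appropriate level; five concentrations were tested over 48 hours in 96-well plates. Here, GI50 denotes the concentration required for 50% inhibition of growth. The concentration for full growth arrest is given as TGI.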

The record followed here is PubChem BioAssay (NCI).

Test systems include A549 NSCLC; SNB-19 CNS; HOP-18 NSCLC; OVCAR-5 ovarian; DMS 114 small cell lung; SK-MEL-2 melanoma; HOP-92 NSCLC; ACHN renal.
Holding throughout (assay): DTP human tumour cell line panel, 48 h

In the case of `COc1c(Cl)c(Cl)c(OC)c2c1C(=O)C=CC2=O`, the TGI in the experiment on A549 NSCLC was greater than 100 µM; in the experiment with SNB-19 CNS, greater than 100 µM; in the experiment on HOP-18 NSCLC, greater than 100 µM; in the experiment on OVCAR-5 ovarian, greater than 100 µM; in the experiment on DMS 114 small cell lung, 29.7 µM; with SK-MEL-2 melanoma, 33.9 µM. For the same molecule, the values for the TGI in the experiment with HOP-92 NSCLC and in the experiment on ACHN renal were 28.8 µM and 29.2 µM, respectively.
For the molecule `COC(=O)c1ccccc1N=Cc1ccc(N(CCC#N)S(=O)(=O)c2ccccc2)cc1`, the TGI with A549 NSCLC, in the experiment with SNB-19 CNS, in the experiment on HOP-18 NSCLC, in the experiment with OVCAR-5 ovarian, in the experiment with SK-MEL-2 melanoma and in the experiment on HOP-92 NSCLC was greater than 100 µM in each case. In the experiment on ACHN renal, this molecule had a TGI greater than 100 µM.
For the molecule `C/C(=C/c1c(C)[nH]c(=O)[nH]c1=O)C(=O)O`, the TGI was greater than 1380 µM in the experiment on A549 NSCLC; greater than 1370 µM with SNB-19 CNS; greater than 1380 µM in the experiment on HOP-18 NSCLC; 1370 µM with OVCAR-5 ovarian; greater than 1380 µM in the experiment with DMS 114 small cell lung; greater than 1380 µM with SK-MEL-2 melanoma. Besides, in the experiment on HOP-92 NSCLC, the TGI was greater than 1380 µM. The GI50 in the experiment on SK-MEL-2 melanoma and in the experiment on HOP-92 NSCLC was greater than 1380 µM in each case.
Consider `CC(C)(Oc1ccc(C(=O)c2ccc(Cl)cc2)cc1Cl)C(=O)N1CCN(c2ccccc2)CC1`, for which the TGI in the experiment with A549 NSCLC, in the experiment with SNB-19 CNS, in the experiment on HOP-18 NSCLC, with OVCAR-5 ovarian, with DMS 114 small cell lung and in the experiment with SK-MEL-2 melanoma was greater than 100 µM in each case. Moreover, the TGI with HOP-92 NSCLC was greater than 100 µM.
With `NC(=S)N/N=C(\C(=O)Nc1ccc(Cl)c(Cl)c1)C1=NN(c2ccccc2)C(c2cccc([N+](=O)[O-])c2)CC1=O` (stereo unspecified), the TGI in the experiment on A549 NSCLC was greater than 100 µM; in the experiment with SNB-19 CNS, greater than 100 µM; in the experiment on HOP-18 NSCLC, greater than 100 µM; with OVCAR-5 ovarian it was greater than 100 µM; in the experiment with DMS 114 small cell lung, 71.2 µM; in the experiment with SK-MEL-2 melanoma it was greater than 100 µM. Besides, in the experiment with ACHN renal, the TGI was greater than 100 µM.
For `Cc1oc2c(C)c3oc(=O)cc(C)c3cc2c1CN`, the TGI in the experiment on A549 NSCLC, in the experiment on SNB-19 CNS, with HOP-18 NSCLC, with OVCAR-5 ovarian, in the experiment on DMS 114 small cell lung and in the experiment with SK-MEL-2 melanoma was greater than 100 µM each time. Also, the TGI in the experiment on ACHN renal is greater than 100 µM.
As to `Cc1ccc(Nc2ccc(Nc3ccc(C)cc3S(=O)(=O)O)c3c2C(=O)c2ccccc2C3=O)c(S(=O)(=O)O)c1`, the TGI in the experiment with A549 NSCLC, in the experiment with SNB-19 CNS, in the experiment on HOP-18 NSCLC, in the experiment with DMS 114 small cell lung, in the experiment with SK-MEL-2 melanoma and with ACHN renal was greater than 100 µM in each case.
